Reference: patent US20260027116A1, “Methods of Treating Chronic Graft-Versus-Host Disease Following Allogeneic Hematopoietic Stem Cell Transplantation” (Kadmon Corporation, LLC, priority 2022, published 2026)

Tested on: cGVHD symptoms
Assay: Example 1: Global Severity Rating (GSR)
Assay type: in vivo, human
Method: Maximal Improvement from Baseline in Global Severity Rating (GSR) by Clinician-reported cGVHD Assessment. […] The response was defined using the scores from 9 organs: skin, eyes, mouth, esophagus, upper gastrointestinal (GI) track, lower GI tract, liver, lungs, and joints and fascia plus GSR. End of treatment (EOT) visit was performed within 3 days after the participant's last dose of study drug. […] Analysis was performed on mITT population.

## CC(C)NC(=O)COc1cccc(-c2nc(Nc3ccc4[nH]ncc4c3)c3ccccc3n2)c1 [Belumosudil, 2-{3-[4-(1H-indazol-5-ylamino)-2-quinazolinyl]phenoxy}-N-(propan-2-yl) acetamide]
Cohort 1 200 mg QD
  GSR maximal improvement 0, participants (%): 5 (29%) participants
  GSR maximal improvement 1, participants (%): 0 (0%) participants
  GSR maximal improvement 3, participants (%): 0 (0%) participants
  GSR maximal improvement from baseline −7, participants (%): 0 (0%) participants
  GSR maximal improvement −1, participants (%): 1 (6%) participants
  GSR maximal improvement −2, participants (%): 2 (12%) participants
  GSR maximal improvement −3, participants (%): 4 (24%) participants
  GSR maximal improvement −4, participants (%): 2 (12%) participants
  GSR maximal improvement −5, participants (%): 2 (12%) participants
  GSR maximal improvement −6, participants (%): 0 (0%) participants
Cohort 2 200 mg BID
  GSR maximal improvement 0, participants (%): 4 (25%) participants
  GSR maximal improvement 1, participants (%): 1 (6%) participants
  GSR maximal improvement 3, participants (%): 1 (6%) participants
  GSR maximal improvement from baseline −7, participants (%): 0 (0%) participants
  GSR maximal improvement −1, participants (%): 2 (13%) participants
  GSR maximal improvement −2, participants (%): 4 (25%) participants
  GSR maximal improvement −3, participants (%): 0 (0%) participants
  GSR maximal improvement −4, participants (%): 0 (0%) participants
  GSR maximal improvement −5, participants (%): 2 (13%) participants
  GSR maximal improvement −6, participants (%): 2 (13%) participants
Cohort 3 400 mg QD
  GSR maximal improvement 0, participants (%): 3 (14%) participants
  GSR maximal improvement 1, participants (%): 1 (5%) participants
  GSR maximal improvement 3, participants (%): 0 (0%) participants
  GSR maximal improvement from baseline −7, participants (%): 2 (10%) participants
  GSR maximal improvement −1, participants (%): 4 (19%) participants
  GSR maximal improvement −2, participants (%): 4 (19%) participants
  GSR maximal improvement −3, participants (%): 1 (5%) participants
  GSR maximal improvement −4, participants (%): 3 (14%) participants
  GSR maximal improvement −5, participants (%): 0 (0%) participants
  GSR maximal improvement −6, participants (%): 0 (0%) participants
